Results on 10 molecules are retold here after patent US8486933B2, “Pyrimidine inhibitors of kinase activity” (AbbVie Inc., priority 2009, dated 2013).

Where only a bound is given, the exact number is not on record here.

For this test, the target named is T1, human IGF-1R (Homo sapiens, UniProt P08069).
T1 construct: human IGF-1R, amino acids 954-1367 expressed by baculovirus in Sf21 cells; GST (C); purchased Cell Signaling Technology; host or cells: baculovirus in Sf21 cells
T1 sequence (P08069 954-1367): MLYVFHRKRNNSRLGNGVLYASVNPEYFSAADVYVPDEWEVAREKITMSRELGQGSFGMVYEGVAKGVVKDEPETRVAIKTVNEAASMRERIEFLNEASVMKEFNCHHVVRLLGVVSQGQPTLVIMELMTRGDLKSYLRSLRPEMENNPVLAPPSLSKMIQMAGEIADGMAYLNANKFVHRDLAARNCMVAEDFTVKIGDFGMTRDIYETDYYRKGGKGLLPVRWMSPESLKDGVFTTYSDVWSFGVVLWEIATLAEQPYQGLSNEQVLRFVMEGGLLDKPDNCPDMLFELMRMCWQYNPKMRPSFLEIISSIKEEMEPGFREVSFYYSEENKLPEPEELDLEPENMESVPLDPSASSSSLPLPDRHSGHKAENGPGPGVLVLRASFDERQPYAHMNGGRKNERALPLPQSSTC
Description: IGF-1R homogenous time-resolved fluorescence (HTRF) in vitro kinase assay. The conditions noted are these: recombinant GST-tagged human IGF-1R aa 954-1367; ATP 50 μM; 60 minutes at room temperature. In kind it is biochemical. The method, then: IGF-1R kinase activity was assayed by a homogenous time-resolved fluorescence (HTRF) in vitro kinase assay (Mathis, G., HTRF(R) Technology. J Biomol Screen, 1999. 4(6): p. 309-314). Specifically, 10 μL C-terminal GST-tagged, recombinant, human IGF-1R, amino acids 954-1367 expressed by baculovirus in Sf21 cells (Cell Singaling Technology) was mixed with 10 μL inhibitor (various concentrations, 2% final DMSO) and 10 μL of ATP (50 μM final concentration) in reaction buffer (50 mM HEPES, pH 7.5, 10 mM MgCl2, 2 mM MnCl2, 0.1% BSA and 1 mM DTT, 40 μL final volume). The reaction was initiated by addition of 10 μL of biotinylated peptide substrate (Biotin-Ahx-[…], 0.5 μM final concentration) in a black 384-well plate (Packard). […] The quenched reaction was allowed to stand at room temperature for 1 hour and then read in a time-resolved fluorescence detector (Envision, Perkin Elmer) at 615 nm and 665 nm simultaneously. The ratio between the signal of 615 nm and 665 nm was used in the calculation of the IC50.
(Time-resolved FRET reads energy transfer from a long-lived donor to a nearby acceptor.)
Turning to `COc1cc(N2CCC(N(C)C)CC2)ccc1Nc1ncc(Cl)c(Nc2ccc3oc(C)nc3c2)n1` [Example 25, 5-chloro-N^2-{4-[4-(dimethylamino)piperidin-1-yl]-2-methoxyphenyl}-N^4-(2-methyl-1,3-benzoxazol-5-yl)pyrimidine-2,4-diamine], the IC50 (commonly the concentration that inhibits the measured activity by half) is over 500 nM.

In the case of `COc1cc(N2CCC(N(C)C)CC2)ccc1Nc1ncc(Br)c(Nc2ccc3sc(C)nc3c2)n1` [Example 22, 5-bromo-N^2-{4-[4-(dimethylamino)piperidin-1-yl]-2-methoxyphenyl}-N^4-(2-methyl-1,3-benzothiazol-5-yl)pyrimidine-2,4-diamine], the IC50 lay within 51 to 100 nM.

As to `CCN1CCN(c2ccc(Nc3ncc(C)c(Nc4ccc5[nH]ncc5c4)n3)cc2)CC1` [Example 9, N^2-[4-(4-ethylpiperazin-1-yl)phenyl]-N^4-1H-indazol-5-yl-5-methylpyrimidine-2,4-diamine], the IC50 was over 500 nM.

`COc1cc(N2CCC(N(C)C)CC2)ccc1Nc1ncc(Br)c(Nc2cc3cn(C)nc3cc2S(=O)(=O)C(C)C)n1` [Example 29, 5-bromo-N^2-{4-[4-(dimethylamino)piperidin-1-yl]-2-methoxyphenyl}-N^4-[6-(isopropylsulfonyl)-2-methyl-2H-indazol-5-yl]pyrimidine-2,4-diamine]: the IC50 lay in the range of 101 to 500 nM.

For the molecule `CCS(=O)(=O)c1cc2c(cnn2C)cc1Nc1nc(Nc2ccc(N3CCC(N4CCN(C)CC4)CC3)cc2OC)ncc1Br` [Example 46, 5-bromo-N^4-[6-(ethylsulfonyl)-1-methyl-1H-indazol-5-yl]-N^2-{2-methoxy-4-[4-(4-methylpiperazin-1-yl)piperidin-1-yl]phenyl}pyrimidine-2,4-diamine], the IC50 was under 10 nM.

As to `CCN1CCN(c2ccc(Nc3ncc(Br)c(Nc4ccc5[nH]c(CCc6ccccc6)nc5c4)n3)cc2)CC1` [Example 3, 5-bromo-N^2-[4-(4-ethylpiperazin-1-yl)phenyl]-N^4-[2-(2-phenylethyl)-1H-benzimidazol-5-yl]pyrimidine-2,4-diamine], the IC50 is over 500 nM.

Consider `CCS(=O)(=O)c1cc2c(cnn2C)cc1Nc1nc(Nc2ccc(N3CCC(N(C)C)CC3)cc2)ncc1Br` [Example 36, 5-bromo-N^2-{4-[4-(dimethylamino)piperidin-1-yl]phenyl}-N^4-[6-(ethylsulfonyl)-1-methyl-1H-indazol-5-yl]pyrimidine-2,4-diamine], for which the half-maximal inhibitory concentration (IC50) was in the range of 10 to 50 nM.

Take `COc1cc(N2CCC(N3CCN(C)CC3)CC2)ccc1Nc1ncc(Br)c(Nc2ccc3ncccc3c2)n1` [Example 49, 5-bromo-N^2-{2-methoxy-4-[4-(4-methylpiperazin-1-yl)piperidin-1-yl]phenyl}-N^4-quinolin-6-ylpyrimidine-2,4-diamine]: the IC50 fell in the range of 10 to 50 nM.

Regarding `CNC(=O)c1cc2c(cnn2C)cc1Nc1nc(Nc2ccc(N3CCC(N(C)C)CC3)cc2)ncc1Br` [Example 38, 5-{[5-bromo-2-({4-[4-(dimethylamino)piperidin-1-yl]phenyl}amino)pyrimidin-4-yl]amino}-N,1-dimethyl-1H-indazole-6-carboxamide], the IC50 was 10 to 50 nM.

Consider `COc1cc(N2CCOCC2)ccc1Nc1ncc(Br)c(Nc2cc3cnn(C)c3cc2S(C)(=O)=O)n1` [Example 40, 5-bromo-N^2-(2-methoxy-4-morpholin-4-ylphenyl)-N^4-[1-methyl-6-(methylsulfonyl)-1H-indazol-5-yl]pyrimidine-2,4-diamine], for which the IC50 lay within 10 to 50 nM.
